The values that follow come from PubChem BioAssay (NCI).

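Compound exposure: 48 hours, 5 concentrations, 96-well plates. TGI: concentration producing complete growth inhibition.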

Experiment in all cases: NCI tumour cell line growth inhibition, 48 h
Test [1] concerns ACHN renal.
Test [2] deals with CAKI-1 renal.
Test [3] concerns HCT-15 colon.
The test system of test [4] is HOP-62 NSCLC.
Test [5] concerns K-562 leukemia.
Test [6] has as its system KM12 colon.
Test [7] deals with MALME-3M melanoma.
Test [8] deals with MDA-MB-435.
Test [9] relates to MOLT-4 leukemia.
For test [10], the system named is NCI-H460 lung.
For test [11], the system named is NCI/ADR-RES ovarian.
Test [12] relates to RPMI-8226 leukemia.
Test [13] deals with RXF 393 renal.
Test [14] has as its system SK-MEL-2 melanoma.
Test [15] has as its system SK-MEL-28 melanoma.
Test [16] has as its system SK-OV-3 ovarian.
Test [17] deals with SN12C renal.
The subject of test [18] is SNB-19 CNS.
The subject of test [19] is SW-620 colon.

In the case of `O=C(CNc1ccc([N+](=O)[O-])cc1)Nn1c(-c2ccccc2)nc2ccccc2c1=O`, the TGI amounted to 14.6 µM in test [1]; 5.15 µM in test [2]; 7.64 µM in test [3]; 16.5 µM in test [4]; 5.52 µM in test [5]; 15.9 µM in test [6]. Further, the TGI came to 4.82 µM in test [7]; 14.6 µM in test [8]; 10.6 µM in test [9]; 14.3 µM in test [10]; 7.65 µM in [11]; 14.8 µM in test [12]. Besides, the TGI in test [13] worked out at 8.84 µM; in test [14] it was 8.37 µM; in test [15] it was 10.8 µM; in test [16] it was 14.9 µM; in [17] it was 5.19 µM; in test [18], 23.1 µM. Also, in test [19], the TGI turned out to be 5.02 µM.

In the case of `CSc1ncc2c(C#N)c3n(C)c4ccccc4n3c(=O)c2n1`, the TGI in test [1], in test [2], in test [3], in test [4], in [5] and in test [6] was > 100 µM each time. Besides, the TGI in test [7], in test [8], in test [9], in [10], in test [11] and in test [12] was > 100 µM throughout. The TGI in test [13], in [14], in test [15], in test [16], in [17] and in [18] was > 100 µM throughout. The TGI in test [19] is > 100 µM.

Take `COC(=O)C(Cc1c(-c2[nH]c3ccccc3c2CC(NC(C)=O)C(=O)OC)[nH]c2ccccc12)NC(C)=O` (stereo not drawn): the TGI in test [1], in [2], in test [3], in test [4], in [5] and in test [6] was > 100 µM in each case. Besides, the TGI in [7], in test [8], in test [9], in test [10], in test [11] and in test [12] was > 100 µM throughout. Moreover, the TGI in [13], in test [14], in test [15], in test [16], in [17] and in test [18] was > 100 µM each time. The TGI in [19] was > 100 µM.

As to `Cc1cc2c(cc1Cl)SC(NNC(=O)c1ccccc1)=NS2(=O)=O`, the TGI in test [1], in [2], in test [3], in [4], in test [5] and in test [6] was > 10 µM in each case. For the same compound, the TGI in test [7], in [8], in [9], in test [10], in test [11] and in test [12] was > 10 µM in each case. The TGI in [13], in test [14], in [15], in test [16], in test [17] and in test [18] was > 10 µM each time. In [19], the TGI was > 10 µM.

In the case of `COc1ccc(C[C@@H]2OC3(C=CC(=O)CC3Sc3ccccc3)O[C@H]2Cc2ccc(OC)cc2)cc1` (stereo partly drawn), the TGI was 2.81 µM in test [1]; 4.97 µM in test [2]; 2.8 µM in test [3]; 2.5 µM in [4]; > 100 µM in [5]; 5.63 µM in test [6]. Also, the TGI in [7] stood at 4.02 µM; in [8], 3.98 µM; in test [9], 2.18 µM; in [10], 12.1 µM; in [11], 3.64 µM; in [12], 1.31 µM. Further, the TGI was determined as 0.348 µM in [13]; 3.05 µM in test [14]; 3.35 µM in test [15]; 7.84 µM in [16]; 5.22 µM in test [17]; 10.3 µM in test [18]. Besides, the TGI in test [19] was 0.946 µM.

As to `CC(O)C1(O)C(O)CC(OC2c3cc4c(c(O)c3[C@@H]3C[C@@]2(C)OC32C=c3cc[nH]c3=N2)C(=O)c2cccc(O)c2C4=O)OC1C` (stereo partly drawn), the TGI was found to be 4.04 µM in test [1]; 5.51 µM in test [2]; 6.41 µM in test [3]; 5.37 µM in test [4]; 4.78 µM in test [5]; 3.77 µM in test [6]. Also, the TGI in test [7] came out at 2.15 µM; in test [8], 3.14 µM; in test [9] it was 2.67 µM; in test [10], 4.03 µM; in test [11] it was 18 µM; in [12], 4.88 µM. In addition, the TGI in [13] amounted to 2.31 µM; in [14], 3.11 µM; in [15], 3.78 µM; in test [16] it was 9.47 µM; in test [17] it was 1.13 µM; in test [18], 11.3 µM. The compound further had a TGI in test [19] of 5.96 µM.

On to `NC(=S)NN=Cc1ccccc1OCc1cccc(COc2ccccc2C=NNC(N)=S)n1`, for which the TGI in [1] is > 100 µM; in test [2] it was > 100 µM; in test [3], > 100 µM; in [4] it was 35.3 µM; in [5] it was > 100 µM; in [6], > 100 µM. Besides, the TGI in [7], in test [8], in test [9], in test [10], in test [11] and in test [12] was > 100 µM throughout. Further, the TGI in test [13] was 10.9 µM; in [14], 33.7 µM; in test [15], > 100 µM; in test [16], 29.6 µM; in test [17] it was > 100 µM; in [18] it was 46.3 µM. Moreover, in test [19], the TGI is > 100 µM.
